What was measured:
[1] = biological target: Sodium-dependent serotonin transporter (Homo sapiens, UniProt P31645); assay type: cell-based, JAR
Description: Inhibition of 5-HT transporter-mediated [3H]5HT uptake in human Jar cells

[2] = biological target: Sodium-dependent serotonin transporter (Rattus norvegicus, UniProt P31652)
Description: Displacement of [3H]paroxetine from serotonin transporter in Sprague-Dawley rat frontal cortical membrane

[3] = organism: Rattus norvegicus; assay: Displacement of [3H]prazosin from alpha1 adrenergic receptor in Sprague-Dawley rat cortical membrane at 1 uM
[4] = biological target: T1, 5-hydroxytryptamine receptor 1A (Homo sapiens, UniProt P08908)
T1 sequence (P08908 whole entry): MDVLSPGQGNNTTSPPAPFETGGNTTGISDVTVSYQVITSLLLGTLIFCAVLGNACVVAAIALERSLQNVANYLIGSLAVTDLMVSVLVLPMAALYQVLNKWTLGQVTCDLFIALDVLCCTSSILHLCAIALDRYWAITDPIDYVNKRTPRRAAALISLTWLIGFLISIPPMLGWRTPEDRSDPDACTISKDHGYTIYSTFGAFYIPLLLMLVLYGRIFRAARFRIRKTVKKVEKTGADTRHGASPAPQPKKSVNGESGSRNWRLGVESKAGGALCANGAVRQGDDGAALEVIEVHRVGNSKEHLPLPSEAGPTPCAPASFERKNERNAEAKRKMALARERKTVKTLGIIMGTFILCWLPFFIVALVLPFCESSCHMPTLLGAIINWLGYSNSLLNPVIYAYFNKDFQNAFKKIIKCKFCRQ
Description: Activity at human cloned 5HT1A receptor expressed in CHO cells assessed as blockade of 5-HT-stimulated [35S]GTPgammaS binding

Chain of Sodium-dependent serotonin transporter (Homo sapiens, UniProt P31645) (P31645 whole entry): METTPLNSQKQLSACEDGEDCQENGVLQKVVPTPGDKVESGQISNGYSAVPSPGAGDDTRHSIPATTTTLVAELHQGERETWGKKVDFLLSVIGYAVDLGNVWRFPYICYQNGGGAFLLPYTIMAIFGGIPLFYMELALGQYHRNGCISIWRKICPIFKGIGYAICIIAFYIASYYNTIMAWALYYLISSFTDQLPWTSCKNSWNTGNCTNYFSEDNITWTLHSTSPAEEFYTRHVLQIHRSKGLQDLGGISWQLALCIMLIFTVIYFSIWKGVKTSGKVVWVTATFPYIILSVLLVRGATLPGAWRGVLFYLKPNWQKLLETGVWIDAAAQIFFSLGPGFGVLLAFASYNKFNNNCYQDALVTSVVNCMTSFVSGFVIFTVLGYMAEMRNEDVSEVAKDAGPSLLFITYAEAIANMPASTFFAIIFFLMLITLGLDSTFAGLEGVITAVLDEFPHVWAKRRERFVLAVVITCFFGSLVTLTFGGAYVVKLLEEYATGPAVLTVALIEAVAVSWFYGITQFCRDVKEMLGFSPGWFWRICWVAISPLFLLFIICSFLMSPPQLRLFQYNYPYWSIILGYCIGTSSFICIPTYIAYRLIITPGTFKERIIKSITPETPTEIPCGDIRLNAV
Chain of Sodium-dependent serotonin transporter (Rattus norvegicus, UniProt P31652) (P31652 whole entry): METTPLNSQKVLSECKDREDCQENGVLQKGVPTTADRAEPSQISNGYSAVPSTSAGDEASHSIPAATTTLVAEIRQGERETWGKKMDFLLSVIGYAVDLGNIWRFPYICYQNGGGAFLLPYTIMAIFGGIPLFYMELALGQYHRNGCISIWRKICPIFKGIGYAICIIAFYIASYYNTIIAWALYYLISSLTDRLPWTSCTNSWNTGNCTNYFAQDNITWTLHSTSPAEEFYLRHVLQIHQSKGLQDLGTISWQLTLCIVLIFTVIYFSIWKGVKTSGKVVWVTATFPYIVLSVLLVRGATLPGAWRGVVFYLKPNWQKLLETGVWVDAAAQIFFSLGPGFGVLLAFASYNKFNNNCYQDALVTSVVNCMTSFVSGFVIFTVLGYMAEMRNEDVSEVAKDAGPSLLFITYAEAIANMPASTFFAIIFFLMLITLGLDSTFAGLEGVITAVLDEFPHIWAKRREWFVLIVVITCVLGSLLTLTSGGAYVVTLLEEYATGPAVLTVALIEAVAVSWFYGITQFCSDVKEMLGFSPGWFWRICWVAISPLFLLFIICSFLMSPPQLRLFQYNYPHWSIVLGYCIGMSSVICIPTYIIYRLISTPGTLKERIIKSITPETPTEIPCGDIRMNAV

SMILES | IC50 [1] [nM] | Ki [2] [nM] | Activity [3] [%] | IC50 [4] [nM] | IC50 ([1]; jar) [nM]
O=C(NC1CC1)c1ccc(F)c2c1CC(N(CCCc1c[nH]c3ccc(F)cc13)C1CCC1)CO2 (centres undefined) | 69.6 | 8.05 | 12 |  | 
COc1cccc2c1CC(N(CCCc1c[nH]c3ccc(F)cc13)C1CCC1)CO2 (centres undefined) |  |  | 15 | > 2000 | 
CCCN(CC1CCc2[nH]c3ccc(F)cc3c2C1)[C@H]1COc2c(F)ccc(C(N)=O)c2C1 (stereo in doubt; 58a) [listing 1 of 2 here] |  |  | 5 |  | 
CCCN(CC1CCc2[nH]c3ccc(F)cc3c2C1)[C@H]1COc2c(F)ccc(C(N)=O)c2C1 (stereo in doubt; 58a) [listing 2 of 2 here] | > 1000 | > 1000 |  | > 1000 | 
NC(=O)c1ccc(F)c2c1C[C@@H](N(CC1CC1)CC1CCc3[nH]c4ccc(F)cc4c3C1)CO2 (stereo in doubt; 59b) [listing 1 of 2 here] |  |  |  |  | > 1000
NC(=O)c1cccc2c1CC(N(CCCc1c[nH]c3ccc(F)cc13)C1CCC1)CO2 (stereo in doubt; (+)-35e) [listing 1 of 2 here] |  |  | 6 |  | 
NC(=O)c1ccc(F)c2c1CC(N(CCCc1c[nH]c3c(Cl)cccc13)C1CCC1)CO2 (centres undefined) | > 1000 |  | 29 | > 1000 | 
NC(=O)c1cccc2c1CC(N(CCCc1c[nH]c3ccc(F)cc13)C1CCC1)CO2 (stereo in doubt; (+)-35e) [listing 2 of 2 here] | 28.3 |  |  |  | 
NC(=O)c1cccc2c1CC(N(CCCc1c[nH]c3ccc(F)cc13)C1CCC1)CO2 (single isomer, unassigned; (-)) [listing 1 of 2 here] |  |  | 10 |  | 
NC(=O)c1ccc(Cl)c2c1CC(N(CCCc1c[nH]c3ccc(F)cc13)C1CCC1)CO2 (stereo in doubt; 35d) | 56.5 | 3.74 |  | > 1000 | 
NC(=O)c1ccc(F)c2c1C[C@@H](NCC1CCc3[nH]c4ccc(F)cc4c3C1)CO2 (stereo in doubt; 57b) | > 1000 |  |  |  | 
NC(=O)c1ccc(F)c2c1C[C@@H](NCC1CCc3[nH]c4ccc(F)cc4c3C1)CO2 (stereo in doubt; 57a) [listing 1 of 2 here] |  |  | 23 |  | 
NC(=O)c1ccc(F)c2c1C[C@@H](NCC1CCc3[nH]c4ccc(F)cc4c3C1)CO2 (stereo in doubt; 57a) [listing 2 of 2 here] | 291 |  |  |  | 
CCCN(CC1CCc2[nH]c3ccc(F)cc3c2C1)[C@H]1COc2c(F)ccc(C(N)=O)c2C1 (single isomer, unassigned; (+)) [listing 1 of 2 here] |  |  |  |  | > 1000
N#Cc1ccc2[nH]cc(CCCN(C3CCC3)C3COc4c(F)ccc(C(N)=O)c4C3)c2c1 (single isomer, unassigned; (-)) |  |  | 19 |  | 
CC(C)NC(=O)c1ccc(F)c2c1CC(N(CCCc1c[nH]c3ccc(F)cc13)C1CCC1)CO2 (centres undefined) | 44.7 | 11.3 | 4 | > 2000 | 
COc1cccc2c1C[C@@H](N(CCCc1c[nH]c3ccc(F)cc13)C1CCC1)CO2 |  |  | 15 |  | 
NC(=O)c1ccc(Cl)c2c1CC(N(CCCc1c[nH]c3ccc(F)cc13)C1CCC1)CO2 (single isomer, unassigned; (-)) |  |  | 22 |  | 
NC(=O)c1ccc(F)c2c1C[C@@H](N(CC1CC1)CC1CCc3[nH]c4ccc(F)cc4c3C1)CO2 (stereo in doubt; 59a) [listing 1 of 2 here] |  |  | 3 |  | 
O=C(NC1CCC1)c1ccc(F)c2c1CC(N(CCCc1c[nH]c3ccc(F)cc13)C1CCC1)CO2 (centres undefined) | 70.6 | 7.26 | 12 |  | 
NC(=O)c1cccc2c1CC(N(CCCc1c[nH]c3ccc(F)cc13)C1CCC1)CO2 (stereo in doubt; 35e) | 114 | 9.55 |  |  | 
N#Cc1ccc2[nH]cc(CCCN(C3CCC3)C3COc4c(F)ccc(C(N)=O)c4C3)c2c1 (single isomer, unassigned; (+)) |  |  | 27 |  | 
O=C(NCC1CC1)c1ccc(F)c2c1CC(N(CCCc1c[nH]c3ccc(F)cc13)C1CCC1)CO2 (centres undefined) | 43.6 | 6.91 | 31 | > 1000 | 
CCCN(CC1CCc2[nH]c3ccc(F)cc3c2C1)[C@H]1COc2c(F)ccc(C(N)=O)c2C1 (single isomer, unassigned; (+)) [listing 2 of 2 here] |  |  | 15 |  | 
NC(=O)c1ccc(F)c2c1C[C@@H](N(CC1CC1)CC1CCc3[nH]c4ccc(F)cc4c3C1)CO2 (stereo in doubt; 59a) [listing 2 of 2 here] | > 1000 |  |  | > 1000 | 
NC(=O)c1cccc2c1CC(N(CCCc1c[nH]c3ccc(F)cc13)C1CCC1)CO2 (single isomer, unassigned; (-)) [listing 2 of 2 here] | 109 | 5.9 |  | 66 | 
NC(=O)c1ccc(F)c2c1C[C@@H](N(CC1CC1)CC1CCc3[nH]c4ccc(F)cc4c3C1)CO2 (stereo in doubt; 59b) [listing 2 of 2 here] |  |  | 22 |  | 

Second part, led by results:

IC50 [1] [nM] | Ki [2] [nM] | Activity [3] [%] | IC50 [4] [nM] | SMILES | IC50 ([1]; jar) [nM]
> 1000 | 9.96 |  |  | NC(=O)c1ccc(F)c2c1CC(N(CCCCn1ccc3ccc(F)cc31)CC1CC1)CO2 (centres undefined) | 
> 1000 |  | 18 | > 1000 | NC(=O)c1ccc(F)c2c1CC(N(CCCCn1ccc3c(F)cccc31)CC1CC1)CO2 (centres undefined) | 
15 | 8.3 | 27 |  | CNC(=O)c1ccc(F)c2c1CC(N(CCCc1c[nH]c3ccc(F)cc13)C1CCC1)CO2 (centres undefined) | 
> 1000 |  |  | > 1000 | NC(=O)c1ccc(F)c2c1CC(N(CCCCn1ccc3cc(F)ccc31)C1CCC1)CO2 (centres undefined) | 
 |  | 7 |  | CC(CCc1c[nH]c2ccc(F)cc12)N(CC1CC1)C1COc2c(F)ccc(C(N)=O)c2C1 (single isomer, unassigned; (+)) [listing 1 of 2 here] | 
612 |  | 20 |  | NC(=O)c1ccc(F)c2c1CC(N(CCCc1c[nH]c3ccc(Cl)cc13)C1CCC1)CO2 (centres undefined) | 
 |  | 46 |  | CCCN(CCCc1c[nH]c2ccc(F)cc12)[C@@H]1COc2c(F)ccc(C(N)=O)c2C1 | 
> 1000 |  | 14 | > 1000 | NC(=O)c1ccc(F)c2c1CC(N(CCCCn1ccc3cccc(F)c31)C1CCC1)CO2 (centres undefined) | 
27.9 | 9.47 | 12 | > 1000 | CCNC(=O)c1ccc(F)c2c1CC(N(CCCc1c[nH]c3ccc(F)cc13)C1CCC1)CO2 (centres undefined) | 
> 1000 | > 1000 | 15 |  | COc1cccc2c(CCCN(C3CCC3)C3COc4c(F)ccc(C(N)=O)c4C3)c[nH]c12 (centres undefined) | 
 |  | 21 |  | NC(=O)c1ccc(F)c2c1C[C@@H](N(CCCc1c[nH]c3ccc(F)cc13)C1CCC1)CO2 | 
452 |  |  |  | CCCN(CCCc1c[nH]c2ccc(F)cc12)[C@@H]1COc2c(F)ccc(OC)c2C1 | 
193 |  |  | 333 | CC(CCc1c[nH]c2ccc(F)cc12)N(CC1CC1)C1COc2c(F)ccc(C(N)=O)c2C1 (single isomer, unassigned; (-)) [listing 1 of 2 here] | 
 |  | 5 |  | NC(=O)c1ccc(F)c2c1CC(N(CCCc1c[nH]c3c(F)cc(F)cc13)C1CCC1)CO2 (single isomer, unassigned; (+)) [listing 1 of 2 here] | 
 |  |  | 405 | CCCN(CCCc1c[nH]c2ccc(F)cc12)[C@H]1COc2c(F)ccc(C(N)=O)c2C1 | 
> 1000 |  | 7 |  | NC(=O)c1ccc(F)c2c1CC(N(CCCCn1ccc3ccc(F)cc31)C1CCC1)CO2 (centres undefined) | 
899 |  | 30 |  | NC(=O)c1ccc(F)c2c1CC(N(CCCc1c[nH]c3cc(F)ccc13)C1CCC1)CO2 (centres undefined) | 
435 |  | 39 |  | CCCN(CCCCn1ccc2cccc(F)c21)C1COc2c(F)ccc(C(N)=O)c2C1 (centres undefined) | 

IC50 [1] [nM] | Ki [2] [nM] | Activity [3] [%] | IC50 [4] [nM] | SMILES | IC50 ([1]; jar) [nM]
162 |  |  |  | CC(CCc1c[nH]c2ccc(F)cc12)N(CC1CC1)C1COc2c(F)ccc(C(N)=O)c2C1 (single isomer, unassigned; (+)) [listing 2 of 2 here] | 
71.6 |  |  | 206 | NC(=O)c1ccc(F)c2c1CC(N(CCCc1c[nH]c3c(F)cc(F)cc13)C1CCC1)CO2 (single isomer, unassigned; (-)) | 
138 |  | 27 |  | NC(=O)c1ccc(F)c2c1CC(N(CCCCn1ccc3cccc(F)c31)CC1CC1)CO2 (centres undefined) | 
> 1000 |  |  |  | NC(=O)c1ccc(F)c2c1CC(N(CCCCn1ccc3cc(F)ccc31)CC1CC1)CO2 (centres undefined) | 
103 |  | 5 |  | NC(=O)c1ccc(F)c2c1CC(N(CCCCn1ccc3c(F)cccc31)C1CCC1)CO2 (centres undefined) | 
> 1000 |  | 23 |  | CCCN(CCCCn1ccc2c(F)cccc21)C1COc2c(F)ccc(C(N)=O)c2C1 (centres undefined) | 
> 1000 |  |  |  | CCCN(CCCCn1ccc2cc(F)ccc21)C1COc2c(F)ccc(C(N)=O)c2C1 (centres undefined) | 
32.7 | 7.96 | 21 |  | CCCNC(=O)c1ccc(F)c2c1CC(N(CCCc1c[nH]c3ccc(F)cc13)C1CCC1)CO2 (centres undefined) | 
776 |  | 15 |  | CCCN(CCCCn1ccc2ccc(F)cc21)C1COc2c(F)ccc(C(N)=O)c2C1 (centres undefined) | 
24.3 | 2.4 |  |  | CCCN(CCCc1c[nH]c2ccc(F)cc12)C1COc2c(F)ccc(C(=O)NC)c2C1 (centres undefined) | 
 |  | 15 |  | CC(CCc1c[nH]c2ccc(F)cc12)N(CC1CC1)C1COc2c(F)ccc(C(N)=O)c2C1 (single isomer, unassigned; (-)) [listing 2 of 2 here] | 
225 |  |  | > 1000 | NC(=O)c1ccc(F)c2c1CC(N(CCCc1c[nH]c3c(F)cc(F)cc13)C1CCC1)CO2 (single isomer, unassigned; (+)) [listing 2 of 2 here] | 
379 |  | 50 |  | CCCN(CCCc1c[nH]c2ccc(F)cc12)[C@H]1COc2c(F)ccc(OC)c2C1 | 
834 | > 1000 |  | 419 | COc1ccc2[nH]cc(CCCN(C3CCC3)C3COc4c(F)ccc(C(N)=O)c4C3)c2c1 (centres undefined) | 
1860 |  |  |  | COC(=O)c1ccc(F)c2c1CC(N(CCCc1c[nH]c3ccc(F)cc13)C1CCC1)CO2 (centres undefined) | 
218 |  |  | > 2000 | CN(C)C(=O)c1ccc(F)c2c1CC(N(CCCc1c[nH]c3ccc(F)cc13)C1CCC1)CO2 (centres undefined) | 
 |  | 16 |  | NC(=O)c1ccc(F)c2c1CC(N(CCCc1c[nH]c3ccc(F)cc13)C1CCC1)CO2 (centres undefined) | 

Source: ChEMBL document CHEMBL1142498 (J Med Chem, 2008)
